In patent publication US20040167165A1, “Methods of treating conditions associated with an Edg-7 receptor” (priority 2003, published 2004):

How the values were obtained:
Edg-5 = target: T1, Edg-5 (Homo sapiens, UniProt O95136); test: S1P-stimulated calcium increases in HTC cells expressing Edg-5; type: cell-based; conditions: concentrations as high as 10 μM
T1 construct: expressed in transfected cells; host or cells: HTC rat hepatoma cells

Edg-8 = target: T2, Edg-8 (Homo sapiens, UniProt Q9H228); test: S1P-stimulated calcium increases in HTC cells expressing Edg-8; type: cell-based; conditions: concentrations as high as 10 μM
T2 construct: expressed in transfected cells; host or cells: HTC rat hepatoma cells

Edg-3 = target: T3, Edg-3 (Homo sapiens, UniProt Q99500); test: S1P-stimulated calcium increases in HTC cells expressing Edg-3; type: cell-based; conditions: concentrations as high as 10 μM
T3 construct: expressed in transfected cells; host or cells: HTC rat hepatoma cells

Edg-1 = target: T4, Edg-1 (Homo sapiens, UniProt P21453); test: S1P-stimulated calcium increases in HTC cells expressing Edg-1; type: cell-based; conditions: concentrations as high as 10 μM
T4 construct: expressed in transfected cells; host or cells: HTC rat hepatoma cells

[1] = system: targets, including GPCRs and ion channels; test: Pharmacology profiling: radioligand binding assays on non-Edg targets; conditions: Section 6.10 panel: adrenergic α1, α2, β, angiotensin AT2, calcium channel Type L, dopamine D2L, endothelin ETA, histamine H1, muscarinic, serotonin 5-HT1; significance criteria ≧50%
Protocol: In order to test the selectivity of compounds, various enzyme assays as well as radioligand binding assays were performed using numerous non-Edg receptor targets as listed below.
A radioligand binding assay was performed using adrenergic α1 according to the method of Greengrass and Bremner 1979, Eur. J. Pharmacol. 55:323-326. A radioligand binding assay was performed using adrenergic α2 according to the method of Boyajian and Leslie, 1987, J. Pharmacol. Exp. Ther. 241:1092-1098. A radioligand binding assay was performed using adrenergic β according to the method of Feve et al., 1994, Proc. Natl. Acad. Sci. USA 91:5677-5681. A radioligand binding assay was performed using angiotensin AT2 according to the method of Whitebread et al., 1991, Biochem. Biophys. Res. Comm. 181:1365-1371. A radioligand binding assay was performed using calcium channel Type L, dihydropyridine according to the method of Ehlert et al., 1982, Life Sci. 30:2191-2202. A radioligand binding assay was performed using dopamine D2L according to the method of Bunzo et al., 1988, Nature 336:783-787. A radioligand binding assay was performed using endothelin ETA according to the method of Mihara et al., 1994, J. Phrmacol. Exp Ther. 268:1122-1127. A radioligand binding assay was performed using histamine H1 Central according to the method of Hill et al., 1978, J. Neurochem. 31:997-1004. […]

Edg-2 = target: T5, Edg-2 (Homo sapiens, UniProt Q92633); test: LPA-stimulated calcium increases in HTC cells expressing Edg-2; type: cell-based; conditions: concentrations as high as 10 μM
T5 construct: expressed in transfected cells; host or cells: HTC rat hepatoma cells

human Edg 7 receptors = target: T6, human Edg 7 receptors (Homo sapiens, UniProt Q9UBY5); test: LPA-stimulated calcium mobilization (FLIPR) in HTC cells expressing Edg-7; type: cell-based
T6 construct: expressed in transfected cells; host or cells: HTC rat hepatoma cells
T6 sequence (Q9UBY5 1-353): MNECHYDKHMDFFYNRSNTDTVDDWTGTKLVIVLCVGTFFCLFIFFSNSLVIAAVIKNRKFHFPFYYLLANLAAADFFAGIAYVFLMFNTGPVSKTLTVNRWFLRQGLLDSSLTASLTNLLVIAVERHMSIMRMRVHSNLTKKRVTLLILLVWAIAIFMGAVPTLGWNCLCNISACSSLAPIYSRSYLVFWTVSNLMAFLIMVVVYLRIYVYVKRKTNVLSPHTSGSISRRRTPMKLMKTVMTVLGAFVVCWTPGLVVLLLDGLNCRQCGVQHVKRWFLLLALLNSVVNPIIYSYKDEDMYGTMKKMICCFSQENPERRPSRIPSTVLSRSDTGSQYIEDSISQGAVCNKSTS
Protocol: The compounds were tested in HTC cells expressing human Edg 7 receptors, as well as in HT1080 human fibrosarcoma cell lines that naturally express Edg 7 receptors. […] The compounds are tested in this recombinant system first, and subsequently tested in cell lines expressing Edg-7 (in addition to other Edg receptors).
LPA receptors such as Edg-7, couple to calcium effector pathways, and result in increases in intracellular calcium following receptor activation (An, 1998, J. Cell. Biochem Supp. 30-31:147-157). This biological response lends itself to a very efficient, high-throughput screen using a Fluorescence Imaging Plate Reader (FLIPR; Molecular Devices, Sunnyvale, Calif.). The FLIPR system is a real-time, cell-based assay system with continuous fluorescence detection using a cooled CCD camera. The FLIPR system was used to developing an Edg-7 receptor screen. Rat hepatoma cells stably expressing Edg-7 receptor were plated on 384-well plates and loaded with a calcium dye loading kit (Molecular Devices, Sunnyvale, Calif.) for 1 hour at room temperature. Cells were then placed on the FLIPR^384 (Molecular Devices, Sunnyvale, Calif.) and excited by an argon laser at 488 nm. The data for the entire 384-well plate was updated every second. An integrated robotic pipettor allowed for simultaneous compound addition into each individual well in the plate.

Edg4 = test: LPA-stimulated calcium increases in HTC cells expressing Edg4; type: cell-based; conditions: concentrations as high as 10 μM

T5 sequence (Q92633 whole entry): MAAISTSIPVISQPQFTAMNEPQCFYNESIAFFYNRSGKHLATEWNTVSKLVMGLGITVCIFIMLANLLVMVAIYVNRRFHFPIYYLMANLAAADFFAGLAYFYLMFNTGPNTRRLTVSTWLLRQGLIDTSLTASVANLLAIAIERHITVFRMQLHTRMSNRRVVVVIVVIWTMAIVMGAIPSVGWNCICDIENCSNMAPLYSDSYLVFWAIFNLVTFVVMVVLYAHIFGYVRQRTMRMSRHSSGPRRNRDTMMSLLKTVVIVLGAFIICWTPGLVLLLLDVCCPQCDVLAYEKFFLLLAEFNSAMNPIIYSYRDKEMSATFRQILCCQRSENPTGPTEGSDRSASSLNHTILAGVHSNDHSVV
T4 sequence (P21453 whole entry): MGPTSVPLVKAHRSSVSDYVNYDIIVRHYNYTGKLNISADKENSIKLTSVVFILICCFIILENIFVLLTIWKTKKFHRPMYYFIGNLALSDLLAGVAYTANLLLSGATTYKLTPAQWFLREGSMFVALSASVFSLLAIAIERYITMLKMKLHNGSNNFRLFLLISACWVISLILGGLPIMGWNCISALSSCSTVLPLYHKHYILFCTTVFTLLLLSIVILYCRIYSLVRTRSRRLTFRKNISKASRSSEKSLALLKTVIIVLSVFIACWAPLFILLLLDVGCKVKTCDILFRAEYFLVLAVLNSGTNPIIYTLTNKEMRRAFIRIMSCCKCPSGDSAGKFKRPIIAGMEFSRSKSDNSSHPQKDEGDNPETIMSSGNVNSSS
T1 sequence (O95136 whole entry): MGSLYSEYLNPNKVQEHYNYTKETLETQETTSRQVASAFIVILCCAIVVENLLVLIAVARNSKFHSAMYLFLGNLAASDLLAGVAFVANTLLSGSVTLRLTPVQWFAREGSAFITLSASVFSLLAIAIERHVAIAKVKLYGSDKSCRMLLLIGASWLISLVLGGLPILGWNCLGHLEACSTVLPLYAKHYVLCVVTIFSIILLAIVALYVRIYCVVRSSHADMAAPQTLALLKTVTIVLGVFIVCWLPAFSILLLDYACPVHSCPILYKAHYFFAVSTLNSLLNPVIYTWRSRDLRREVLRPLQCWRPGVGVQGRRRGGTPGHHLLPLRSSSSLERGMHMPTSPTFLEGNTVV
T2 sequence (Q9H228 whole entry): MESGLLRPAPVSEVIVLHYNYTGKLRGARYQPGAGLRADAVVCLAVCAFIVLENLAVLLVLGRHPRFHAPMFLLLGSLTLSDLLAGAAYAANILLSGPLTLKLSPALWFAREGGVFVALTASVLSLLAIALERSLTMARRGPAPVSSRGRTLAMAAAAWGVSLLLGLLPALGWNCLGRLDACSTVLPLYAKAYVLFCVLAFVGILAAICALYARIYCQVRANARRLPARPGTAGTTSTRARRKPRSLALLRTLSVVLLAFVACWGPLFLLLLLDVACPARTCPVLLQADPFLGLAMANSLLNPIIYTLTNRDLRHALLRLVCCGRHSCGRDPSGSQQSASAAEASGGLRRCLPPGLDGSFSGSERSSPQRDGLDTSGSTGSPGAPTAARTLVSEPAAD
T3 sequence (Q99500 whole entry): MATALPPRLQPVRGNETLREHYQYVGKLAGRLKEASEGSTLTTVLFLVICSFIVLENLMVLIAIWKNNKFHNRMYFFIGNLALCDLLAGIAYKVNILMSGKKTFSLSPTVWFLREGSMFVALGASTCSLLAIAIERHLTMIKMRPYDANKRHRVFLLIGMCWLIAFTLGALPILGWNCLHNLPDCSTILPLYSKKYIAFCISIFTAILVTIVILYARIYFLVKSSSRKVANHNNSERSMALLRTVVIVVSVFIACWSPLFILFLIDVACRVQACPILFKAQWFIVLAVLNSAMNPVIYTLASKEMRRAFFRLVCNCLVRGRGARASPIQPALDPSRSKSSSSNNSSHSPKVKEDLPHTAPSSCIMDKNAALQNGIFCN

| melting point [°C] | inhibition of S1P-stimulated calcium increases (Edg-5) | inhibition of S1P-stimulated calcium increases (Edg-8) | inhibition of S1P-stimulated calcium increases (Edg-3) | inhibition of S1P-stimulated calcium increases (Edg-1) | activity in radioligand binding assays [1] | inhibition of LPA-stimulated calcium increases (Edg-2) | inhibition of the Edg-7 receptor (human Edg 7 receptors; FIG. 1, HTC cells) | inhibition of Edg-7 stimulated LPA responses (human Edg 7 receptors; HTC cells expressing human Edg 7 receptors, as well as HT1080 human fibrosarcoma cell lines) | SMILES | inhibition of LPA-stimulated calcium increases (Edg4) |
| --- | --- | --- | --- | --- | --- | --- | --- | --- | --- | --- |
| 284 to 285 |  |  |  |  |  |  |  |  | COc1ccc(-c2nc3ccc(C(=O)O)cc3nc2-c2ccc(OC)cc2)cc1 [Compound 129, 2,3-bis-(4-Methoxyphenyl)quinoxaline-6-carboxylic acid] |  |
| 103 to 105 |  |  |  |  |  |  |  |  | Cc1cc(C)c2c(c1)Cc1ccccc1S2(=O)=O [Compound 133, 2,4-Dimethyl-9H-thioxanthene 10,10-dioxide] |  |
|  | did not inhibit | did not inhibit | did not inhibit | did not inhibit | no significant activity | did not inhibit | specifically inhibit | demonstrate inhibition | CCOC(=O)c1c(NC(=O)NS(=O)(=O)c2ccccc2Cl)sc2c1CCCC2 [Compound 101] | did not inhibit |
